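1) Cells in 96-well plates. 2) Compound, 48 h, 5 concentrations. 3) Linear interpolation between surrounding doses. 4) Unreached endpoint = highest concentration. TGI is the concentration that stops growth completely.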
What was measured:
Assay in all cases: NCI anticancer screen, dose series, 48 h
SK-MEL-2 melanoma = tested on: SK-MEL-2 melanoma
NCI-H522 lung = tested on: NCI-H522 lung
DLD-1 colon = tested on: DLD-1 colon
UACC-62 melanoma = tested on: UACC-62 melanoma
HCC-2998 colon = tested on: HCC-2998 colon
RPMI-8226 leukemia = tested on: RPMI-8226 leukemia
CAKI-1 renal = tested on: CAKI-1 renal
NCI-H226 lung = tested on: NCI-H226 lung
SK-MEL-28 melanoma = tested on: SK-MEL-28 melanoma
KM12 colon = tested on: KM12 colon
LOX IMVI melanoma = tested on: LOX IMVI melanoma
MALME-3M melanoma = tested on: MALME-3M melanoma
UACC-257 melanoma = tested on: UACC-257 melanoma
COLO 205 colon = tested on: COLO 205 colon
OVCAR-4 ovarian = tested on: OVCAR-4 ovarian
DMS 114 small cell lung = tested on: DMS 114 small cell lung
LXFL 529 NSCLC = tested on: LXFL 529 NSCLC
SNB-19 CNS = tested on: SNB-19 CNS
SW-620 colon = tested on: SW-620 colon
ACHN renal = tested on: ACHN renal
HCT-116 colon = tested on: HCT-116 colon
SNB-75 CNS = tested on: SNB-75 CNS
KM20L2 colon = tested on: KM20L2 colon
NCI-H23 lung = tested on: NCI-H23 lung
SN12C renal = tested on: SN12C renal
SF-268 CNS = tested on: SF-268 CNS
OVCAR-8 ovarian = tested on: OVCAR-8 ovarian
EKVX NSCLC = tested on: EKVX NSCLC
K-562 leukemia = tested on: K-562 leukemia
A498 renal = tested on: A498 renal
HOP-62 NSCLC = tested on: HOP-62 NSCLC
A549 NSCLC = tested on: A549 NSCLC
DMS 273 small cell lung = tested on: DMS 273 small cell lung
UO-31 renal = tested on: UO-31 renal
CCRF-CEM leukemia = tested on: CCRF-CEM leukemia
MOLT-4 leukemia = tested on: MOLT-4 leukemia
U251 CNS = tested on: U251 CNS
RXF 393 renal = tested on: RXF 393 renal
SR leukemia = tested on: SR leukemia
SF-295 CNS = tested on: SF-295 CNS
RXF-631 renal = tested on: RXF-631 renal
SF-539 CNS = tested on: SF-539 CNS
HT29 colon = tested on: HT29 colon
HCT-15 colon = tested on: HCT-15 colon
M19-MEL melanoma = tested on: M19-MEL melanoma
786-0 renal = tested on: 786-0 renal
NCI-H460 lung = tested on: NCI-H460 lung
HL-60(TB) leukemia = tested on: HL-60(TB) leukemia
M14 melanoma = tested on: M14 melanoma
TK-10 renal = tested on: TK-10 renal
OVCAR-3 ovarian = tested on: OVCAR-3 ovarian
IGROV1 ovarian = tested on: IGROV1 ovarian
OVCAR-5 ovarian = tested on: OVCAR-5 ovarian
SK-OV-3 ovarian = tested on: SK-OV-3 ovarian
HOP-18 NSCLC = tested on: HOP-18 NSCLC
SK-MEL-5 melanoma = tested on: SK-MEL-5 melanoma
HOP-92 NSCLC = tested on: HOP-92 NSCLC

Measured: TGI

COc1cc(C(C)c2cc3c(cc2OCCN)OCO3)cc(OC)c1OC (stereo not drawn)
46.8 µM: SNB-75 CNS
95.7 µM: RXF 393 renal
80.8 µM: KM20L2 colon
47 µM: HL-60(TB) leukemia
not listed: SK-OV-3 ovarian | HOP-18 NSCLC | SK-MEL-5 melanoma | HOP-92 NSCLC
> 100 µM: all other assays above

COc1ccc(OC)c2c(C(=O)O)c(C(C)c3ccccc3)ccc12 (stereo not drawn)
not listed: RPMI-8226 leukemia | DMS 114 small cell lung | SF-539 CNS | HOP-92 NSCLC
> 100 µM: all other assays above

O=C(C=P(c1ccccc1)(c1ccccc1)c1ccccc1)CC(=S)CC(=O)C=P(c1ccccc1)(c1ccccc1)c1ccccc1
20.1 µM: LXFL 529 NSCLC
80 µM: OVCAR-5 ovarian
3.71 µM: COLO 205 colon
15.7 µM: NCI-H522 lung
20.5 µM: M14 melanoma
53.6 µM: ACHN renal
8.26 µM: SK-MEL-5 melanoma
13 µM: UACC-257 melanoma
14.7 µM: HCC-2998 colon
6.09 µM: HOP-92 NSCLC
25 µM: SF-539 CNS
47.1 µM: UACC-62 melanoma
98.9 µM: UO-31 renal
27 µM: DMS 114 small cell lung
12.5 µM: OVCAR-3 ovarian
16.4 µM: NCI-H23 lung
29.3 µM: HCT-15 colon
9.04 µM: HOP-18 NSCLC
46.7 µM: NCI-H460 lung
10.1 µM: DMS 273 small cell lung
14.5 µM: SF-295 CNS
18.8 µM: KM12 colon
24.1 µM: NCI-H226 lung
22.9 µM: OVCAR-8 ovarian
17.9 µM: DLD-1 colon | SN12C renal
11.7 µM: U251 CNS
50.8 µM: TK-10 renal
20.6 µM: A498 renal
25.2 µM: RXF 393 renal
24.8 µM: HOP-62 NSCLC
not listed: SK-MEL-2 melanoma | SNB-75 CNS | MOLT-4 leukemia | SR leukemia | HL-60(TB) leukemia
> 100 µM: all other assays above
